Patent US6703421B1, “Methods of using phenylmethylbenzoquinone and hydroquinone compounds for treatment of myocarditis, dilated cardiomyopathy and heart failure” (Daiichi Suntory Pharma Co., Ltd., priority 1999, dated 2004)
Read-outs that look alike come from different tables or passages of the source.

How the values were obtained:
rat adjuvant arthritis = conditions: Pierce J W, et al. (1997) J. Biol. Chem. 272, 21096-21103; cited from earlier work
[1] = tested on: EMC virus-inoculated DBA/2 mice (viral myocarditis); test: Survival rate in murine viral myocarditis model; type: in vivo, mouse; conditions: 10% DMSO, Kaplan-Meier p<0.05, FIG. 3
Method: Viral myocarditis mice were prepared using the procedure described below in accordance with a known method (Shioi T. et al. (1997) J. Mol. Cell. Cardiol., 29, 2327-2334). Variant M (acquired from the American Type Culture Collection) was used for the EMC virus for inoculation and prepared to 100 pfu/ml in Eagle's MEM medium (Nissui Pharmaceutical). Four-week-old DBA/2 male mice were divided into two groups, and intraperitoneally inoculated with EMC virus at 10 pfu/animal. Test compound was then administered intraperitoneally and daily for 14 days under the following conditions to each group starting 3 hours after inoculation.
The test compound was used after dissolving in 0.5% aqueous gum arabic solution (3 mg/ml). In the present example, the compound of Production Example 4 was used in the test as the NF-κB inhibitor.
Test group (n=10): Administration of NF-κB inhibitor (Production Example 4) at 30 mg/kg body weight Control group (n=10): 0.5% aqueous gum arabic solution
The experiment was conducted in the following three groups using the same method as Example 2 and the compound of Production Example 7 for the NF-κB inhibitor. The test compound was used after dissolving in 10% aqueous dimethylsulfoxide solution (DMSO) (test group 1: 0.3 mg/ml, test group 2: 3 mg/ml). The survival rates were tested for the presence of a significant difference according to the Kaplan-Meier method, and statistical significance was defined as p<0.05.
Test group 1 (n=21): Administration of NF-κB inhibitor (Production Example 7) at 3 mg/kg body weight
Test group 2 (n=21): Administration of NF-κB inhibitor (Production Example 7) at 30 mg/kg body weight
Four-week-old DBA/2 male mice were inoculated with EMC virus using the same method as Example 2, and the test compound was administered orally and daily for 14 days under the following conditions to each group starting 2 hours after inoculation.
The test compound was used after dissolving in 10% aqueous sulfobutylcyclodextrin solution (3 mg/ml). In the present example, the compound of Production Example 44 was used in the test as the NF-κB inhibitor.
Test group (n=20): Administration of NF-κB inhibitor (Production Example 44) at 30 mg/kg body weight

iNOS = iNOS mRNA level in heart by TaqMan PCR, murine myocarditis model; type: in vivo, mouse; conditions: 30 mg/kg intraperitoneally daily for 5 days, heart day 5, corrected with GAPDH, vs infected control; FIG. 6
Method: (§1) Four-week-old DBA/2 male mice were inoculated with EMC virus in the same manner as Example 3 followed by intraperitoneal administration of the compound of Production Example 7 dissolved in 10% DMSO or 10% DMSO only daily for 5 days starting 2 hours after inoculation. The whole hearts were excised from mice of the Production Example 7 compound group, 10% DMSO group and non-infected group on day 5 of viral infection, and after extracting RNA using ISOGEN (Wako Pure Chemical Industries), cDNA was obtained in accordance with the procedure of the SuperScript Preamplification System (Lifetech Oriental). The mRNA levels of TNF-α, IL-1β and iNOS were assayed by TaqMan PCR using this cDNA as templates. Detection was performed using the PRISM7700 (PE Biosystems Japan) in accordance with the protocol of the PCR assay system (PE Biosystems Japan). The following primers and TaqMan probes were used for detection.
(§2) The amount of RNA of each sample was corrected with the amount of glyceraldehyde-3-phosphate dehydrogenase (GAPDH) gene.
(§3) Infected group (administered compound of Production Example 7) (n=10) Administration of NF-κB inhibitor (Production Example 7) at 30 mg/kg body weight

[2] = tested on: EMC virus-inoculated DBA/2 mice (viral myocarditis); test: Histopathology of heart (cardiac necrosis, cellular infiltration) in murine myocarditis model; type: in vivo, mouse; conditions: 30 mg/kg, hearts on days 7 and 8, score 0-4, vs control group; FIG. 5
Method: NF-κB inhibitor (compound of Production Example 7) was administered at 30 mg/kg body weight using the similar method as Example 3 to the mouse myocarditis model prepared in the similar manner as Example 2. The whole hearts of those mice alive on days 7 and 8 (n=10) were extripated, exsanguinated and washed with phosphate-buffered saline. Subsequently, paraffin embedded and sectioned specimens were prepared by fixing the tissue with 10% formalin. The specimens were stained with hematoxylin-eosin stain followed by examination of histopathological findings.
In cross-sectional images taken along the minor axis of the left ventricle under light microscopy, the percentage of cardiac necrosis features or cellular infiltration was classified into 0 (no damage), 1 (less than 25%), 2 (25% to less than 50%), 3 (50% to less than 75%) and 4 (75% or more), and respectively observed by two observers. The evaluations of the two observers were averaged to obtain a single evaluation. The results obtained were tested for the presence of a significant difference by analysis of variance (ANOVA) according to Bonferroni's multiple comparison method, and statistical significance was defined as p<0.05.
Test group (n=10): Administration of NF-κB inhibitor (Production Example 7) at 30 mg/kg body weight

NF-κB = NF-κB luciferase reporter assay in A549/NF-κBLuc cells; type: cell-based, human; conditions: Homo sapiens, A549/NF-κBLuc, luciferase activity
Method: Using lipofectamine (Lifetech Oriental K. K., Tokyo) according to the conventional method, human lung cancer cell line A549 cells (ATCC catalog no. CCL185), which are known to express hiNOS by cytokine stimulation, were co-transfected with pNFκB-Luc, which are plasmid controlled by a NF-κB binding consensus sequence, and pSV2neo (Clontech, U.S.A.), and then A549/NF-κBLuc, the cell that has stably introduced pNFκB-Luc, was selected by adding G418 sulfate (1 mg/ml, Lifetech Oriental K. K.) to the culture medium.
The luciferase activity was measured using the Luciferase Assay System (Promega, U.S.A.).

IL-1β = IL-1β mRNA level in heart by TaqMan PCR, murine myocarditis model; type: in vivo, mouse; conditions: 30 mg/kg intraperitoneally daily for 5 days, heart day 5, corrected with GAPDH, vs infected control; FIG. 6
Method: as §1, §2, §3

TNF-α = TNF-α mRNA level in heart by TaqMan PCR, murine myocarditis model; type: in vivo, mouse; conditions: 30 mg/kg intraperitoneally daily for 5 days, heart day 5, corrected with GAPDH, vs infected control; FIG. 6
Method: as §1, §2, §3

Row | IC50 (NF-κB; IL-1β (1 ng/ml) for 4 hours, read-out: IC50 (μM) IL-1 stimulation) | IC50 (NF-κB; TNF-α (500 ng/ml) for 4 hours, read-out: IC50 (μM) TNF stimulation) | Structure (SMILES) | effect in rat adjuvant arthritis (rat adjuvant arthritis) | survival rate ([1]; 3 mg/kg intraperitoneally daily for 14 days) | survival rate ([1]; 30 mg/kg intraperitoneally daily for 14 days) | expression of iNOS at the mRNA level (iNOS) | cardiac necrosis [2] | cellular infiltration [2] | expression of IL-1β at the mRNA level (IL-1β) | expression of TNF-α at the mRNA level (TNF-α)
1 |  |  | CC(C)(C)c1ccc(S(=O)(=O)/C=C/C#N)cc1 [BAY11-7083] | exhibit an effect |  |  |  |  |  |  | 
2 | 4 µM | 10 µM | COC1=C(OC)C(=O)C(Cc2ccc(CCC(=O)N3CCCCC3)cc2)=C(C)C1=O [Prod. Ex. 7] |  | significantly improve survival rate | significantly improve survival rate | significantly inhibited | significantly inhibited | significantly inhibited | significantly inhibited | significantly inhibited
